# Results from patent EP0136464A2, “Therapeutic compositions for oral use containing stable S-Adenosy1-L-Methionine salts” (BIORESEARCH S.p.A., priority 1983, dated 1985).
# Tested on: Reaction to heat, tail flick test in the rat
# Assay: Reaction to heat, tail flick test in the rat (analgesic activity)
# Type: in vivo, male Sprague-Dawley rats
# Conditions: in vivo, 5 mg/kg
# Procedure: In the experiments carried out on animals which received the SAMe orally, the drug was dissolved in physiological solution and administered by gastric probe in a volume of 0.5 ml/100 g of body weight. An equal volume of physiological solution was administered to the controls.
# In the experiments in which SAMe was administered intraduodenally, the animals anesthetised with ether were subjected to laparotomy to allow the insertion into the duodenum of gelatin capsules (size 4) containing the product.
# After inserting the capsule, the duodenum was sutured carefully so as not to traumatise the tissue and was then returned to its seat, the muscular and cutaneous layers then being re-composed and sutured.
# The control animals received an empty gelatin capsule by the same procedure.
# 1) Reaction to heat, tail flick test in the rat.
# The analgesic activity of SAMe was evaluated in male Sprague-Dawley rats of about 190 g weight by the method of D'Amour and Smith (J. Pharmacol. Exp. Theor. 71, 74 (1941)).
# The SAMe was administered either orally or in gelatin capsules into the duodenum in doses of 50 and 100 mg/kg.
# Morphine was used as the comparison drug and was administered under the cutis at a dose of 5 mg/kg.
# The analgesic activity was determined 30, 60 and 120 minutes after administration of the drugs.
# The results represent the mean + S.E. for the number of animals indicated in parentheses. The morphine was administered under the cutis to rats which received one empty capsule into the duodenum.
smiles,measurement,value
"CN1CC[C@]23c4c5ccc(O)c4O[C@H]2[C@@H](O)C=C[C@H]3[C@H]1C5 [Morphine, reference compound]",analgesic activity with respect to the controls,powerful analgesic activity (P<0.01)
